These results are taken from US20040014740A1 (priority 2002, published 2004).

The test system of the experiment is binding site of a radiolabelled ligand (assay of U.S. Patent No. 5,859,188). Put plainly: binding assay as described in U.S. Patent No. 5,859,188: percent displacement of a radiolabelled ligand. The following applies: for Testing Result % inhibition at indicated concentration / Testing Result % inhibition at indicated concentration, Test 1: percent displacement of radiolabelled ligand; for Testing Result % inhibition at indicated concentration, Test 2: concentration not given for Test 2. As for the experimental part: Selected compounds were evaluated for their anti-parasitic activity in a binding assay as described in U.S. Patent No. 5,859,188 (Geary, et.al., 1999). Results of the evaluations are given in the following Table wherein % inhibition means percent displacement of a radiolabelled ligand as described.

Take `CCOC(=O)c1c(NC(=O)CN2CCCC(O)C2)sc2c1CCCC2` (stereo not shown) [gg, ethyl 2-{[(3-hydroxypiperidin-1-yl)acetyl]amino}-4,5,6,7-tetrahydro-1-benzothiophene-3-carboxylate]: the “Testing Result % inhibition at indicated concentration” value (25 uM) is given as 68-73% at 25 uM. As to `CCOC(=O)c1c(NC(=O)CN2CCCCC2)sc2c1CCC(c1ccccc1)C2` (stereo not shown) [m, ethyl 6-phenyl-2-[(piperidin-1-ylacetyl)amino]-4,5,6,7-tetrahydro-1-benzothiophene-3-carboxylate], the “Testing Result % inhibition at indicated concentration” value (25 uM) was determined as 36% at 25 uM. As to `CCOC(=O)c1c(-c2ccc(C)cn2)csc1NC(=O)CN1CCCCC1` [r, ethyl 4-(5-methylpyridin-2-yl)-2-[(piperidin-1-ylacetyl)amino]thiophene-3-carboxylate], the “Testing Result % inhibition at indicated concentration, Test 2” value (“Testing Result % inhibition … Test 2” below) came out at 26%. For the same compound, the “Testing Result % inhibition at indicated concentration, Test 1” value (“Testing Result % inhibition … Test 1” below) (25 uM) is reported as 42%. `CCOC(=O)c1c(NC(=O)CN2CCCCC2)sc2c1CCCC2` [Compound B]: for the setting “1 uM”, the “Testing Result % inhibition at indicated concentration” value was 59% at 1 uM.

As for `CCOC(=O)c1c(NC(=O)CN2CCCCC2)sc2c1CCS2` [ee, ethyl 2-[(piperidin-1-ylacetyl)amino]-4,5-dihydrothieno[2,3-b]thiophene-3-carboxylate], the “Testing Result % inhibition at indicated concentration” value (25 uM) was 61-72% at 25 uM. For the compound `CCOC(=O)c1c(NC(=O)CN2CCCCC2)sc2c1CC(C)CC2` (stereo not shown) [q, ethyl 5-methyl-2-[(piperidin-1-ylacetyl)amino]-4,5,6,7-tetrahydro-1-benzothiophene-3-carboxylate], the “Testing Result % inhibition … Test 2” value is reported as 15-22%. The “Testing Result % inhibition … Test 1” value (25 uM) is recorded as 65-74%.

With `CCOC(=O)c1c(C)csc1NC(=O)CN1CCCCC1` [w, ethyl 4-methyl-2-[(piperidin-1-ylacetyl)amino]thiophene-3-carboxylate], the “Testing Result % inhibition … Test 2” value is recorded as 39-47%. For the setting “25 uM”, the “Testing Result % inhibition … Test 1” value was 58-70%.

As to `CCOC(=O)c1c(NC(=O)CN2CCCCC2)sc2c1CCN(C(=O)OCC)C2` [p, diethyl 2-[(piperidin-1-ylacetyl)amino]-4,7-dihydrothieno[2,3-c]pyridine-3,6(5H)-dicarboxylate], the “Testing Result % inhibition … Test 2” value was 33-49%. In addition, the “Testing Result % inhibition … Test 1” value (25 uM) is 50-52%. As for `CCOC(=O)c1c(NC(=O)CN2CCCCC2)sc2c1CC(C)(CC)OC2` (stereo not shown) [s, ethyl 5-ethyl-5-methyl-2-[(piperidin-1-ylacetyl)amino]-4,7-dihydro-5H-thieno[2,3-c]pyran-3-carboxylate], the “Testing Result % inhibition … Test 2” value was 69-79%. Moreover, the “Testing Result % inhibition … Test 1” value (25 uM) is listed as 93-100%.

In the case of `CCOC(=O)c1c(NC(=O)CN2CCCCC2)sc2c1CCN(Cc1ccccc1)C2` [u, ethyl 6-benzyl-2-[(piperidin-1-ylacetyl)amino]-4,5,6,7-tetrahydrothieno[2,3-c]pyridine-3-carboxylate], the “Testing Result % inhibition … Test 2” value is reported as 0-14%. Further, the “Testing Result % inhibition … Test 1” value (25 uM) is recorded as 48-51%. For `CCOC(=O)c1c(NC(=O)CN2CCCCCC2)sc2c1CCCC2` [h, ethyl 2-[(azepan-1-ylacetyl)amino]-4,5,6,7-tetrahydro-1-benzothiophene-3-carboxylate], where the note is “25 uM”, the “Testing Result % inhibition at indicated concentration” value is listed as 46% at 25 uM. For `CCOC(=O)c1c(NC(=O)CN2CCCCCC2)sc2c1CCC2` [k, ethyl 2-[(azepan-1-ylacetyl)amino]-5,6-dihydro-4H-cyclopenta[b]thiophene-3-carboxylate], the “Testing Result % inhibition at indicated concentration” value (25 uM) is listed as 77-70% at 25 uM. With `CCOC(=O)c1c(NC(=O)CN2CCC(O)CC2)sc2c1CCCC2` [ff, ethyl 2-{[(4-hydroxypiperidin-1-yl)acetyl]amino}-4,5,6,7-tetrahydro-1-benzothiophene-3-carboxylate], the “Testing Result % inhibition at indicated concentration” value (25 uM) was 31-34% at 25 uM. For `CCOC(=O)c1c(NC(=O)CN2CCC2)sc2c1CCCC2` [i, ethyl 2-[(azetidin-1-ylacetyl)amino]-4,5,6,7-tetrahydro-1-benzothiophene-3-carboxylate], for the setting “25 uM”, the “Testing Result % inhibition at indicated concentration” value was 28% at 25 uM.

With `CCOC(=O)C1=C(NC(=O)CN2CCOCC2)SC2CCCCCC12` (stereo not shown) [Compound D], the “Testing Result % inhibition at indicated concentration” value (25 uM) is on record as 38% at 25 uM. Regarding `CC(C)OC(=O)c1c(NC(=O)CN2CCCCC2)sc2c1CCCC2` [cc, isopropyl 2-[(piperidin-1-ylacetyl)amino]-4,5,6,7-tetrahydro-1-benzothiophene-3-carboxylate], for the setting “25 uM”, the “Testing Result % inhibition at indicated concentration” value is recorded as 34-54% at 25 uM. For `CCOC(=O)c1cc(-c2ccsc2)sc1NC(=O)CN1CCCCC1` [aa, ethyl 5-[(piperidin-1-ylacetyl)amino]-2,3′-bithiophene-4-carboxylate], the “Testing Result % inhibition … Test 2” value was 37-43%. In addition, the “Testing Result % inhibition … Test 1” value (25 uM) is reported as 46-66%.

As for `CCOC(=O)c1c(-c2ccncc2)csc1NC(=O)CN1CCCCC1` [v, ethyl 2-[(piperidin-1-ylacetyl)amino]-4-pyridin-4-ylthiophene-3-carboxylate], the “Testing Result % inhibition … Test 2” value was 14-17%. Also, the “Testing Result % inhibition … Test 1” value (25 uM) was 15-43%.

Consider `CCOC(=O)c1c(NC(=O)CN2CCCCC2)sc(Cl)c1-c1ccccc1` [l, ethyl 5-chloro-4-phenyl-2-[(piperidin-1-ylacetyl)amino]thiophene-3-carboxylate], for which, for the setting “25 uM”, the “Testing Result % inhibition at indicated concentration” value stood at 35% at 25 uM. In the case of `COC(=O)c1c(NC(=O)CN2CCCCC2)sc2c1CCCC2` [x, methyl 2-[(piperidin-1-ylacetyl)amino]-4,5,6,7-tetrahydro-1-benzothiophene-3-carboxylate], the “Testing Result % inhibition … Test 2” value was 41-55%. The “Testing Result % inhibition … Test 1” value (25 uM) is reported as 55-70%. In the case of `CCOC(=O)c1c(-c2ccco2)csc1NC(=O)CN1CCCCC1` [t, ethyl 4-(2-furyl)-2-[(piperidin-1-ylacetyl)amino]thiophene-3-carboxylate], the “Testing Result % inhibition … Test 2” value is reported as 24-40%. Also, the “Testing Result % inhibition … Test 1” value (25 uM) was 70-75%. For `CCOC(=O)C1=C(NC(=O)CN2CCCCC2)SC2CCCCCC12` (stereo not shown) [C], the “Testing Result % inhibition … Test 2” value is on record as 53%. Besides, for the setting “25 uM”, the “Testing Result % inhibition … Test 1” value was 82%. In the case of `CC(C)OC(=O)c1c(-c2ccc(Cl)c(Cl)c2)csc1NC(=O)CN1CCCCC1` [dd, isopropyl 4-(3,4-dichlorophenyl)-2-[(piperidin-1-ylacetyl)amino]thiophene-3-carboxylate], the “Testing Result % inhibition at indicated concentration” value (25 uM) is reported as 0-9% at 25 uM. In the case of `CCOC(=O)c1c(-c2ccc(Br)cc2)csc1NC(=O)CN1CCCCC1` [z, ethyl 4-(4-bromophenyl)-2-[(piperidin-1-ylacetyl)amino]thiophene-3-carboxylate], the “Testing Result % inhibition … Test 2” value is 37-43%. For the same compound, where the note is “25 uM”, the “Testing Result % inhibition … Test 1” value was 44-55%. Consider `CCOC(=O)c1c(-c2ccsc2)csc1NC(=O)CN1CCCCC1` [bb, ethyl 5-[(piperidin-1-ylacetyl)amino]-3,3′-bithiophene-4-carboxylate], for which the “Testing Result % inhibition … Test 2” value is listed as 18-38%. The “Testing Result % inhibition … Test 1” value (25 uM) is 40-63%.

Consider `CCCOC(=O)c1c(NC(=O)CN2CCCCC2)sc2c1CCCC2` [y, propyl 2-[(piperidin-1-ylacetyl)amino]-4,5,6,7-tetrahydro-1-benzothiophene-3-carboxylate], for which the “Testing Result % inhibition … Test 2” value was 33-54%. Further, the “Testing Result % inhibition … Test 1” value (25 uM) is given as 52-65%. Regarding `CCOC(=O)c1c(NC(=O)CN2CCCCC2)sc2c1CCC2` [A, ethyl 2-{[2-(1-piperidinyl)acetyl]amino}-5,6-dihydro-4H-cyclopenta[b]thiophene-3-carboxylate], the “Testing Result % inhibition at indicated concentration” value (3 uM) is on record as 69% at 3 uM.

For `CCOC(=O)c1c(NC(=O)CN2CCCC2)sc2c1CCCC2` [g, ethyl 2-[(pyrrolidin-1-ylacetyl)amino]-4,5,6,7-tetrahydro-1-benzothiophene-3-carboxylate], the “Testing Result % inhibition at indicated concentration” value (25 uM) is given as 68-75% at 25 uM.

On to `CCOC(=O)c1c(NC(=O)CN2CCCC2)sc2c1CCC2` [j, ethyl 2-[(pyrrolidin-1-ylacetyl)amino]-5,6-dihydro-4H-cyclopenta[b]thiophene-3-carboxylate], for which, for the setting “25 uM”, the “Testing Result % inhibition at indicated concentration” value was 83-88% at 25 uM. As for `CCOC(=O)c1c(NC(=O)CN2CCCCC2)sc2c1CCC(C(C)(C)C)C2` (stereo not shown) [n, ethyl 6-tert-butyl-2-[(piperidin-1-ylacetyl)amino]-4,5,6,7-tetrahydro-1-benzothiophene-3-carboxylate], the “Testing Result % inhibition at indicated concentration” value (25 uM) is reported as 13% at 25 uM. As for `CCOC(=O)c1c(NC(=O)C(C)N2CCCCC2)sc2c1CCCC2` (stereo not shown) [o, ethyl 2-[(2-piperidin-1-ylpropanoyl)amino]-4,5,6,7-tetrahydro-1-benzothiophene-3-carboxylate], the “Testing Result % inhibition … Test 2” value is on record as 38-40%. Besides, the “Testing Result % inhibition … Test 1” value (25 uM) was 46-73%.
